Measured values reported in PubChem BioAssay AID1259407 (Chemical Carcinogenesis Research Information System (CCRIS), 2018).
Calls of active or inactive are those of the source. The rule behind the calls is not given here.

Tested on: CCRIS mutagenicity, Ames/micronucleus/aberration tests
Experiment: CCRIS mutagenicity studies
[1] = Test System: AMES SALMONELLA TYPHIMURIUM, Strain/Indicator: TA98, Metabolic Activation: NONE, Method: STANDARD PLATE
[2] = Test System: AMES SALMONELLA TYPHIMURIUM, Strain/Indicator: TA100, Metabolic Activation: NONE, Method: STANDARD PLATE
[3] = Test System: AMES SALMONELLA TYPHIMURIUM, Strain/Indicator: TA1537, Metabolic Activation: NONE, Method: STANDARD PLATE

Q: For C=C(Cl)CCl, which mutagenic call (End Point: IN VITRO CHROMOSOMAL ABERRATIONS, Test System: CHO-LB CELLS, Metabolic Activation: NONE) is on record?
A: The mutagenic call was “active; positive”.

Q: What about the mutagenic call (End Point: IN VITRO CHROMOSOMAL ABERRATIONS, Test System: CHO-LB CELLS, Metabolic Activation: RAT, LIVER, S-9, AROCLOR 1254) of the same compound?
A: Its mutagenic call is “active; positive”.

Q: And the mutagenic call (Test System: AMES SALMONELLA TYPHIMURIUM, Strain/Indicator: TA97, Metabolic Activation: HAMSTER, LIVER, S-9, AROCLOR 1254 (10%), Method: PREINCUBATION)?
A: Its mutagenic call is “active; positive”.

Q: What about the mutagenic call (Test System: AMES SALMONELLA TYPHIMURIUM, Strain/Indicator: TA97, Metabolic Activation: NONE, Method: PREINCUBATION) of the same compound?
A: Its mutagenic call is “active; positive”.

Q: And the mutagenic call (Test System: AMES SALMONELLA TYPHIMURIUM, Strain/Indicator: TA97, Metabolic Activation: RAT, LIVER, S-9, AROCLOR 1254 (10%), Method: PREINCUBATION)?
A: Its mutagenic call is “active; positive”.

Q: What about the mutagenic call (Test System: AMES SALMONELLA TYPHIMURIUM, Strain/Indicator: TA98, Metabolic Activation: HAMSTER, LIVER, S-9, AROCLOR 1254 (10%), Method: PREINCUBATION) of the same compound?
A: The mutagenic call was “active; positive”.

Q: And the mutagenic call (Test System: AMES SALMONELLA TYPHIMURIUM, Strain/Indicator: TA98, Metabolic Activation: HAMSTER, LIVER, S-9, AROCLOR 1254, Method: STANDARD PLATE)?
A: Its mutagenic call is “active; positive”.

Q: And the mutagenic call (Test System: AMES SALMONELLA TYPHIMURIUM, Strain/Indicator: TA98, Metabolic Activation: NONE, Method: PREINCUBATION)?
A: Its mutagenic call is “active; positive”.

Q: What about the mutagenic call [1] of the same compound?
A: The mutagenic call was “active; positive”.

Q: What about the mutagenic call (Test System: AMES SALMONELLA TYPHIMURIUM, Strain/Indicator: TA98, Metabolic Activation: RAT, LIVER, S-9, AROCLOR 1254 (10%), Method: PREINCUBATION) of the same compound?
A: The mutagenic call was “active; positive”.

Q: And the mutagenic call (Test System: AMES SALMONELLA TYPHIMURIUM, Strain/Indicator: TA98, Metabolic Activation: RAT, LIVER, S-9, AROCLOR 1254, Method: STANDARD PLATE)?
A: Its mutagenic call is “inactive; negative”.

Q: And the mutagenic call (Test System: AMES SALMONELLA TYPHIMURIUM, Strain/Indicator: TA100, Metabolic Activation: HAMSTER, LIVER, S-9, AROCLOR 1254 (10%), Method: PREINCUBATION)?
A: Its mutagenic call is “active; positive”.

Q: What about the mutagenic call (Test System: AMES SALMONELLA TYPHIMURIUM, Strain/Indicator: TA100, Metabolic Activation: HAMSTER, LIVER, S-9, AROCLOR 1254, Method: STANDARD PLATE) of the same compound?
A: The mutagenic call was “active; positive”.

Q: What about the mutagenic call (Test System: AMES SALMONELLA TYPHIMURIUM, Strain/Indicator: TA100, Metabolic Activation: NONE, Method: PREINCUBATION) of the same compound?
A: Its mutagenic call is “active; positive”.

Q: And the mutagenic call [2]?
A: Its mutagenic call is “active; positive”.

Q: And the mutagenic call (Test System: AMES SALMONELLA TYPHIMURIUM, Strain/Indicator: TA100, Metabolic Activation: RAT, LIVER, MICROSOMES, PHENOBARBITAL, NADPH COFACTORS, Method: STANDARD PLATE)?
A: Its mutagenic call is “inactive; negative”.

Q: What about the mutagenic call (Test System: AMES SALMONELLA TYPHIMURIUM, Strain/Indicator: TA100, Metabolic Activation: RAT, LIVER, MICROSOMES, PHENOBARBITAL, Method: STANDARD PLATE) of the same compound?
A: The mutagenic call was “inactive; negative”.

Q: What about the mutagenic call (Test System: AMES SALMONELLA TYPHIMURIUM, Strain/Indicator: TA100, Metabolic Activation: RAT, LIVER, S-9, AROCLOR 1254 (10%), Method: PREINCUBATION) of the same compound?
A: Its mutagenic call is “active; positive”.

Q: And the mutagenic call (Test System: AMES SALMONELLA TYPHIMURIUM, Strain/Indicator: TA100, Metabolic Activation: RAT, LIVER, S-9, AROCLOR 1254, Method: STANDARD PLATE)?
A: The mutagenic call was “active; positive”.

Q: What about the mutagenic call (Test System: AMES SALMONELLA TYPHIMURIUM, Strain/Indicator: TA102, Metabolic Activation: S-9, Method: STANDARD PLATE) of the same compound?
A: The mutagenic call was “inactive; negative”.

Q: What about the mutagenic call (Test System: AMES SALMONELLA TYPHIMURIUM, Strain/Indicator: TA1535, Metabolic Activation: HAMSTER, LIVER, S-9, AROCLOR 1254 (10%), Method: PREINCUBATION) of the same compound?
A: The mutagenic call was “active; positive”.

Q: What about the mutagenic call (Test System: AMES SALMONELLA TYPHIMURIUM, Strain/Indicator: TA1535, Metabolic Activation: HAMSTER, LIVER, S-9, AROCLOR 1254, Method: STANDARD PLATE) of the same compound?
A: Its mutagenic call is “active; positive”.

Q: What about the mutagenic call (Test System: AMES SALMONELLA TYPHIMURIUM, Strain/Indicator: TA1535, Metabolic Activation: NONE, Method: PREINCUBATION) of the same compound?
A: The mutagenic call was “active; positive”.

Q: What about the mutagenic call (Test System: AMES SALMONELLA TYPHIMURIUM, Strain/Indicator: TA1535, Metabolic Activation: NONE, Method: STANDARD PLATE) of the same compound?
A: The mutagenic call was “active; positive”.

Q: What about the mutagenic call (Test System: AMES SALMONELLA TYPHIMURIUM, Strain/Indicator: TA1535, Metabolic Activation: RAT, LIVER, S-9, AROCLOR 1254 (10%), Method: PREINCUBATION) of the same compound?
A: The mutagenic call was “active; positive”.

Q: And the mutagenic call (Test System: AMES SALMONELLA TYPHIMURIUM, Strain/Indicator: TA1535, Metabolic Activation: RAT, LIVER, S-9, AROCLOR 1254, Method: STANDARD PLATE)?
A: The mutagenic call was “active; positive”.

Q: And the mutagenic call (Test System: AMES SALMONELLA TYPHIMURIUM, Strain/Indicator: TA1537, Metabolic Activation: HAMSTER, LIVER, S-9, AROCLOR 1254, Method: STANDARD PLATE)?
A: Its mutagenic call is “inactive; negative”.

Q: What about the mutagenic call [3] of the same compound?
A: The mutagenic call was “inactive; negative”.

Q: And the mutagenic call (Test System: AMES SALMONELLA TYPHIMURIUM, Strain/Indicator: TA1537, Metabolic Activation: RAT, LIVER, S-9, AROCLOR 1254, Method: STANDARD PLATE)?
A: Its mutagenic call is “inactive; negative”.

Q: And the mutagenic call (Test System: AMES SALMONELLA TYPHIMURIUM, Strain/Indicator: TA1538, Metabolic Activation: HAMSTER, LIVER, S-9, AROCLOR 1254, Method: STANDARD PLATE)?
A: Its mutagenic call is “inactive; negative”.

Q: What about the mutagenic call (Test System: AMES SALMONELLA TYPHIMURIUM, Strain/Indicator: TA1538, Metabolic Activation: NONE, Method: STANDARD PLATE) of the same compound?
A: Its mutagenic call is “inactive; negative”.

Q: What about the mutagenic call (Test System: AMES SALMONELLA TYPHIMURIUM, Strain/Indicator: TA1538, Metabolic Activation: RAT, LIVER, S-9, AROCLOR 1254, Method: STANDARD PLATE) of the same compound?
A: The mutagenic call was “inactive; negative”.

Q: What about the mutagenic call (Test System: AMES SALMONELLA TYPHIMURIUM, Strain/Indicator: TA1978, Metabolic Activation: NONE, Method: STANDARD PLATE) of the same compound?
A: Its mutagenic call is “active; positive”.

Q: And the mutagenic call (Test System: AMES SALMONELLA TYPHIMURIUM, Strain/Indicator: TA1978, Metabolic Activation: RAT, LIVER, S-9, AROCLOR 1254, Method: STANDARD PLATE)?
A: The mutagenic call was “active; positive”.

Q: And the mutagenic call (Test System: AMES SALMONELLA TYPHIMURIUM, Strain/Indicator: TA2638, Metabolic Activation: S-9, Method: STANDARD PLATE)?
A: Its mutagenic call is “inactive; negative”.

Q: And the mutagenic call (Test System: E. COLI, Strain/Indicator: WP2 (PKM101), Metabolic Activation: S-9, Method: STANDARD PLATE)?
A: The mutagenic call was “inactive; negative”.

Q: What about the mutagenic call (Test System: E. COLI, Strain/Indicator: WP2 UVRA (PKM101), Metabolic Activation: S-9, Method: STANDARD PLATE) of the same compound?
A: The mutagenic call was “active; positive”.

Q: What about the mutagenic call (Test System: MOUSE LYMPHOMA, Strain/Indicator: L5178Y (TK+/TK-), Metabolic Activation: NONE, Method: SUSPENSION/PLATE) of the same compound?
A: The mutagenic call was “active; positive. reevaluation of results: positive”.

Q: What about the mutagenic call (Test System: MOUSE LYMPHOMA, Strain/Indicator: L5178Y (TK+/TK-), Metabolic Activation: RAT, LIVER, S-9, AROCLOR 1254, Method: SUSPENSION/PLATE) of the same compound?
A: The mutagenic call was “active; positive. reevaluation of results: positive”.

Q: Which mutagenic call [1] does the source give for c1ccc2c(c1)-c1cc3ccc4ccccc4c3cc1C1OC21 (stereo unspecified) here?
A: Its mutagenic call is “inactive; negative”.

Q: What about the mutagenic call [2] of the same compound?
A: Its mutagenic call is “inactive; negative”.

Q: And the mutagenic call [3]?
A: Its mutagenic call is “active; positive”.

Q: And the mutagenic call (Test System: CHINESE HAMSTER V-79, Strain/Indicator: V-79/8-AZAGUANINE, Metabolic Activation: NONE, Method: STANDARD PLATE)?
A: Its mutagenic call is “active; positive”.

Q: With O=[N+]([O-])c1ccc2ccc3nc4ccccc4c4ccc1c2c34 as the compound, how does the mutagenic call (Test System: AMES SALMONELLA TYPHIMURIUM, Strain/Indicator: TA98(1,8-DNP6), Metabolic Activation: NONE) read?
A: Its mutagenic call is “active; positive”.

Q: What about the mutagenic call (Test System: AMES SALMONELLA TYPHIMURIUM, Strain/Indicator: TA98(NR), Metabolic Activation: NONE) of the same compound?
A: The mutagenic call was “active; positive”.

Q: And the mutagenic call (Test System: AMES SALMONELLA TYPHIMURIUM, Strain/Indicator: TA98, Metabolic Activation: NONE)?
A: The mutagenic call was “active; positive”.
